# Target: ROCK2 (Homo sapiens, UniProt O75116)
# Test: ROCK2 kinase inhibition assay (Caliper LABCHIP, FITC peptide substrate)
# Format: biochemical
# Settings: 5 μM ATP, 1.5 μM peptide substrate; value ranges
# Procedure, shortened: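 Dose-response curves gave IC50 from inhibition of peptide phosphorylation, measured by LabChip separation after EDTA stop. Reactions used 1.5 μM FITC-labelled peptide, 5 μM ATP, 20 mM HEPES pH 7.5 with MgCl2, Brij-35, DTT, and under 2% DMSO.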
# Sequence of ROCK2 (O75116 whole entry, species assumed): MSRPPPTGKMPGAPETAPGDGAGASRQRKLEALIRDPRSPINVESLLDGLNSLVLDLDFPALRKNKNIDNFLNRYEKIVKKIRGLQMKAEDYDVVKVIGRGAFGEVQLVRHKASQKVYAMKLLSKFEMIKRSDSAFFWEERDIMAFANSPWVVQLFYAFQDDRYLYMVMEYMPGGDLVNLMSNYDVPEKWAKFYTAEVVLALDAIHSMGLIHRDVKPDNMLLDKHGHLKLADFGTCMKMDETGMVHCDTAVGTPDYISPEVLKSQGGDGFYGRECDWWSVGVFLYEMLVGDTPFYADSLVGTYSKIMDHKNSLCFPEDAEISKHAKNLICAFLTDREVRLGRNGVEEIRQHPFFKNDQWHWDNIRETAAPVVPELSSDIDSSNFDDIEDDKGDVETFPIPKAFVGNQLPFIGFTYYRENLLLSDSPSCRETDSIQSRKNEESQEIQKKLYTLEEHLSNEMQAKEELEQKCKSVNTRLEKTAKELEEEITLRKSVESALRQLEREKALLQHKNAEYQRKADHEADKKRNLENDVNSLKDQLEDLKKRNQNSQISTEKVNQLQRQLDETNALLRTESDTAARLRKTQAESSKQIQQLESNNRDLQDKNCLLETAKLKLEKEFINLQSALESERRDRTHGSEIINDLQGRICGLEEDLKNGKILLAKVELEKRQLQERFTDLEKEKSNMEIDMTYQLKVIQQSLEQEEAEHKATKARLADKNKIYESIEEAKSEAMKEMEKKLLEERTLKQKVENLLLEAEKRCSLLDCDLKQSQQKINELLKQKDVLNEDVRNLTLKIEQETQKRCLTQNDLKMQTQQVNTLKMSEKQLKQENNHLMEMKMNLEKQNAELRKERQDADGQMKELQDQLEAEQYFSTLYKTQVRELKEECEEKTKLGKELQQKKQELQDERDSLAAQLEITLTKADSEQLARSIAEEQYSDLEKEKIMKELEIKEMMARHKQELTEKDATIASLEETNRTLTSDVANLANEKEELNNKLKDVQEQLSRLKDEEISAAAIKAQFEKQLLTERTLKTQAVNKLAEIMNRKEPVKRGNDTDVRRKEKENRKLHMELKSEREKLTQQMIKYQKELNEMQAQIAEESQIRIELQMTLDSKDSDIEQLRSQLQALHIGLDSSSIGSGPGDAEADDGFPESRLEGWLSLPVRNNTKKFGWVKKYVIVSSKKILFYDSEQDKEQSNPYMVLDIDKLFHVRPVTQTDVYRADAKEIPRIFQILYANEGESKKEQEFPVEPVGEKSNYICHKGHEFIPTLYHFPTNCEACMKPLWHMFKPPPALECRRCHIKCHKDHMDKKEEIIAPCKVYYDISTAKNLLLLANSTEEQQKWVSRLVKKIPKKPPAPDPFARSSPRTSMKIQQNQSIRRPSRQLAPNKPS
row,Compound,IC50 [µM]
1,"CCc1cc(N2CCN(Cc3ccc(F)c(OC)c3)C2=O)ncc1-c1cn[nH]c1 [Example 194, 1-(4-ethyl-5-(1H-pyrazol-4-yl)pyridin-2-yl)-3-(4-fluoro-3-methoxy-benzyl) imidazolidin-2-one]",0.2 to 2
2,"CNc1nc(N2CCN(Cc3ccc(F)c(OC)c3)C2=O)ccc1-c1cn[nH]c1 [Example 199, 1-(4-fluoro-3-methoxy-benzyl)-3-(6-(methyl-amino)-5-(1H-pyrazol-4-yl)pyridin-2-yl)-imidazolidin-2-one]",0.0201 to 0.2
3,"CNc1nc(N2CCN(Cc3cc(F)cc(OC)c3)C2=O)ccc1-c1cn[nH]c1 [Example 200, 1-(3-fluoro-5-methoxy-benzyl)-3-(6-(methyl-amino)-5-(1H-pyrazol-4-yl)pyridin-2-yl)-imidazolidin-2-one]",0.0021 to 0.02
4,"CNc1nc(N2CCN(Cc3cccc(OCC4CC4)c3)C2=O)ccc1-c1cn[nH]c1 [Example 201, 1-(3-(cyclopropyl-methoxy)-benzyl)-3-(6-(methyl-amino)-5-(1H-pyrazol-4-yl)pyridin-2-yl)-imidazolidin-2-one]",0.2 to 2
5,"CNc1nc(N2CCN(Cc3cccc(OC)c3)C2=O)ccc1-c1cn[nH]c1 [Example 202, 1-(3-methoxy-benzyl)-3-(6-(methyl-amino)-5-(1H-pyrazol-4-yl)pyridin-2-yl)-imidazolidin-2-one]",0.0021 to 0.02
6,"COc1cccc(CN2CCN(c3ccc(-c4ccncc4F)c(C)n3)C2=O)c1 [Example 205, 1-(3′-fluoro-2-methyl-[3,4′-bipyridin]-6-yl)-3-(3-methoxy-benzyl) imidazolidin-2-one]",0.2 to 2
7,"Cc1nc(N2CCN(Cc3ccc(F)c(OCC4CC4)c3)C2=O)ccc1-c1cn[nH]c1 [Example 210, 1-(3-(cyclopropylmethoxy)-4-fluorobenzyl)-3-(6-methyl-5-(1H-pyrazol-4-yl)pyridin-2-yl)imidazolidin-2-one]",0.0201 to 0.2
8,"O=C1N(CC2CCCCC2)CCN1c1ccc(-c2cn[nH]c2)cc1 [Example 211, 1-(4-(1H-pyrazol-4-yl)phenyl)-3-(cyclohexylmethyl)imidazolidin-2-one]",0.2 to 2
9,"COc1cc(CN2CCN(c3ccc(-c4cn[nH]c4)c(OC)n3)C2=O)ccc1F [Example 214, 1-(4-fluoro-3-methoxybenzyl)-3-(6-methoxy-5-(1H-pyrazol-4-yl)pyridin-2-yl)imidazolidin-2-one]",< 0.002
10,"COc1nc(N2CCN(Cc3ccc(F)c(OCC4CC4)c3)C2=O)ccc1-c1cn[nH]c1 [Example 218, 1-(3-(cyclopropylmethoxy)-4-fluorobenzyl)-3-(6-methoxy-5-(1H-pyrazol-4-yl)pyridin-2-yl)imidazolidin-2-one]",0.0021 to 0.02
11,"COc1ccc(F)c(CN2CCN(c3ccc(-c4cn[nH]c4)c(OC)n3)C2=O)c1 [Example 221, 1-(2-fluoro-5-methoxybenzyl)-3-(6-methoxy-5-(1H-pyrazol-4-yl)pyridin-2-yl)imidazolidin-2-one]",< 0.002
12,"COc1ccc(F)cc1CN1CCN(c2ccc(-c3cn[nH]c3)c(OC)n2)C1=O [Example 222, 1-(5-fluoro-2-methoxybenzyl)-3-(6-methoxy-5-(1H-pyrazol-4-yl)pyridin-2-yl)imidazolidin-2-one]",0.0021 to 0.02
13,"COc1nc(N2CCN(Cc3cccc(F)c3F)C2=O)ccc1-c1cn[nH]c1 [Example 223, 1-(2,3-difluorobenzyl)-3-(6-methoxy-5-(1H-pyrazol-4-yl)pyridin-2-yl)imidazolidin-2-one]",0.0021 to 0.02
14,"COc1nc(N2CCN(Cc3cc(F)cc(OCC4CC4)c3)C2=O)ccc1-c1cn[nH]c1 [Example 224, 1-(3-(cyclopropylmethoxy)-5-fluorobenzyl)-3-(6-methoxy-5-(1H-pyrazol-4-yl)pyridin-2-yl)imidazolidin-2-one]",0.0021 to 0.02
15,"COc1nc(N2CCN(Cc3cccc(F)c3OC)C2=O)ccc1-c1cn[nH]c1 [Example 225, 1-(3-fluoro-2-methoxybenzyl)-3-(6-methoxy-5-(1H-pyrazol-4-yl)pyridin-2-yl)imidazolidin-2-one]",0.0021 to 0.02
16,"COc1nc(N2CCN(Cc3cccc(F)c3)C2=O)ccc1-c1cn[nH]c1 [Example 226, 1-(3-fluorobenzyl)-3-(6-methoxy-5-(1H-pyrazol-4-yl)pyridin-2-yl)imidazolidin-2-one]",< 0.002
17,"COc1nc(N2CCN(CC3CCCCC3)C2=O)ccc1-c1cn[nH]c1 [Example 227, 1-(cyclohexylmethyl)-3-(6-methoxy-5-(1H-pyrazol-4-yl)pyridin-2-yl)imidazolidin-2-one]",0.0021 to 0.02
18,"COc1nc(N2CCN(Cc3cccc(OC(F)F)c3)C2=O)ccc1-c1cn[nH]c1 [Example 233, 1-(3-(difluoromethoxy)benzyl)-3-(6-methoxy-5-(1H-pyrazol-4-yl)pyridin-2-yl)imidazolidin-2-one]",0.0021 to 0.02
19,"Cc1cccc(CN2CCN(c3ccc(-c4cn[nH]c4)cn3)C2=O)c1 [Example 234, 1-(5-(1H-pyrazol-4-yl)pyridin-2-yl)-3-(3-methylbenzyl)imidazolidin-2-one]",0.0201 to 0.2
20,"N#Cc1cccc(CN2CCN(c3ccc(-c4cn[nH]c4)cn3)C2=O)c1 [Example 235, 3-((3-(5-(1H-pyrazol-4-yl)pyridin-2-yl)-2-oxoimidazolidin-1-yl)methyl)benzonitrile]",0.2 to 2

row,Compound,IC50 [µM]
1,"O=C1N(Cc2cccc(Cl)c2)CCN1c1ccc(-c2cn[nH]c2)cn1 [Example 237, 1-(5-(1H-pyrazol-4-yl)pyridin-2-yl)-3-(3-chlorobenzyl)imidazolidin-2-one]",0.0201 to 0.2
2,"O=C1N(Cc2ccc(F)c(F)c2)CCN1c1ccc(-c2cn[nH]c2)cn1 [Example 238, 1-(5-(1H-pyrazol-4-yl)pyridin-2-yl)-3-(3,4-difluorobenzyl)imidazolidin-2-one]",0.2 to 2
3,"O=C(O)c1cccc(CN2CCN(c3ccc(-c4cn[nH]c4)cn3)C2=O)c1 [Example 239, 3-((3-(5-(1H-pyrazol-4-yl)pyridin-2-yl)-2-oxoimidazolidin-1-yl)methyl)benzoic acid]",0.0201 to 0.2
4,"O=C1N(Cc2cccc(C(F)(F)F)c2)CCN1c1ccc(-c2cn[nH]c2)cn1 [Example 240, 1-(5-(1H-pyrazol-4-yl)pyridin-2-yl)-3-(3-(trifluoromethyl)benzyl)imidazolidin-2-one]",0.2 to 2
5,"O=C1N(Cc2ccc(Cl)c(Cl)c2)CCN1c1ccc(-c2cn[nH]c2)cn1 [Example 241, 1-(5-(1H-pyrazol-4-yl)pyridin-2-yl)-3-(3,4-dichlorobenzyl)imidazolidin-2-one]",0.2 to 2
6,"O=C1N(Cc2cccnc2)CCN1c1ccc(-c2cn[nH]c2)cn1 [Example 242, 1-(5-(1H-pyrazol-4-yl)pyridin-2-yl)-3-(pyridin-3-ylmethyl)imidazolidin-2-one]",0.2 to 2
7,"O=C1N(Cc2ccccn2)CCN1c1ccc(-c2cn[nH]c2)cn1 [Example 243, 1-(5-(1H-pyrazol-4-yl)pyridin-2-yl)-3-(pyridin-2-ylmethyl)imidazolidin-2-one]",0.2 to 2
8,"COc1nc(N2CCN(Cc3ccccc3F)C2=O)ccc1-c1cn[nH]c1 [Example 244, 1-(2-fluorobenzyl)-3-(6-methoxy-5-(1H-pyrazol-4-yl)pyridin-2-yl)imidazolidin-2-one]",0.0021 to 0.02
9,"COc1nc(N2CCN(Cc3ccc(F)cc3F)C2=O)ccc1-c1cn[nH]c1 [Example 245, 1-(2,4-difluorobenzyl)-3-(6-methoxy-5-(1H-pyrazol-4-yl)pyridin-2-yl)imidazolidin-2-one]",0.0201 to 0.2
10,"COc1nc(N2CCN(Cc3cc(F)ccc3F)C2=O)ccc1-c1cn[nH]c1 [Example 246, 1-(2,5-difluorobenzyl)-3-(6-methoxy-5-(1H-pyrazol-4-yl)pyridin-2-yl)imidazolidin-2-one]",0.0021 to 0.02
11,"COc1nc(N2CCN(Cc3cc(F)cc(F)c3)C2=O)ccc1-c1cn[nH]c1 [Example 247, 1-(3,5-difluorobenzyl)-3-(6-methoxy-5-(1H-pyrazol-4-yl)pyridin-2-yl)imidazolidin-2-one]",< 0.002
12,"COc1nc(N2CCN(Cc3cccc(F)c3C)C2=O)ccc1-c1cn[nH]c1 [Example 248, 1-(3-fluoro-2-methylbenzyl)-3-(6-methoxy-5-(1H-pyrazol-4-yl)pyridin-2-yl)imidazolidin-2-one]",< 0.002
13,"COc1nc(N2CCN(Cc3ccc(F)cc3C)C2=O)ccc1-c1cn[nH]c1 [Example 249, 1-(4-fluoro-2-methylbenzyl)-3-(6-methoxy-5-(1H-pyrazol-4-yl)pyridin-2-yl)imidazolidin-2-one]",0.0201 to 0.2
14,"COc1nc(N2CCN(Cc3cc(F)ccc3C)C2=O)ccc1-c1cn[nH]c1 [Example 250, 1-(5-fluoro-2-methylbenzyl)-3-(6-methoxy-5-(1H-pyrazol-4-yl)pyridin-2-yl)imidazolidin-2-one]",0.0021 to 0.02
15,"COc1cc(F)ccc1CN1CCN(c2ccc(-c3cn[nH]c3)c(OC)n2)C1=O [Example 251, 1-(4-fluoro-2-methoxybenzyl)-3-(6-methoxy-5-(1H-pyrazol-4-yl)pyridin-2-yl)imidazolidin-2-one]",0.0201 to 0.2
16,"COc1cccc(CN2CCN(c3ccc(-c4cn[nH]c4)c(OC)n3)C2=O)c1F [Example 252, 1-(2-fluoro-3-methoxybenzyl)-3-(6-methoxy-5-(1H-pyrazol-4-yl)pyridin-2-yl)imidazolidin-2-one]",0.0021 to 0.02
17,COc1nc(N2CCN(Cc3cccnc3)C2=O)ccc1-c1cn[nH]c1 [Example 253],0.0021 to 0.02
18,"COc1nc(N2CCN(CC3CCCO3)C2=O)ccc1-c1cn[nH]c1 (stereo not shown) [Example 254, 1-(6-methoxy-5-(1H-pyrazol-4-yl)pyridin-2-yl)-3-((tetrahydrofuran-2-yl)methyl)imidazolidin-2-one]",0.0201 to 0.2
19,"COc1nc(N2CCN(Cc3noc(C)n3)C2=O)ccc1-c1cn[nH]c1 [Example 255, 1-((6-methoxy-5-(1H-pyrazol-4-yl)pyridin-2-yl)-3-(5-methyl-1,2,4-oxadiazol-3-yl)methyl)imidazolidin-2-one]",0.2 to 2
20,"COc1nc(N2CCN(Cc3cccc(Cl)c3)C2=O)ccc1-c1cn[nH]c1 [Example 256, 1-(3-chlorobenzyl)-3-(6-methoxy-5-(1H-pyrazol-4-yl)pyridin-2-yl)imidazolidin-2-one]",0.0021 to 0.02

# Source: patent US10123993B2, “Cyclic ureas as inhibitors of rock” (BRISTOL-MYERS SQUIBB COMPANY, priority 2015, dated 2018)
